Assay results as given in patent US11530218B2, “Spiro compounds as inhibitors of KRAS” (Incyte Corporation, priority 2020, dated 2022).

How the values were obtained:
KRAS G12C = KRAS G12C (Homo sapiens, UniProt P01116, G12C); assay: KRAS G12C GDP-GTP exchange assay (bodipy-GDP/GppNHp, SOS1); format: biochemical; conditions: bodipy-loaded KRAS G12C 2.5 nM, 2 hours pre-incubation with inhibitor, 2 hours exchange; read-out: G12C_exchange (KRAS_G12C exchange assay IC50)
Protocol: (§1) The inhibitor potency of the exemplified compounds was determined in a fluorescence based guanine nucleotide exchange assay, which measures the exchange of bodipy-GDP (fluorescently labeled GDP) for GppNHp (Non-hydrolyzable GTP analog) to generate the active state of KRAS in the presence of SOS1 (guanine nucleotide exchange factor). Inhibitors were serially diluted in DMSO and a volume of 0.1 μL was transferred to the wells of a black low volume 384-well plate. 5 μL/well volume of bodipy-loaded KRAS G12C diluted to 5 nM in assay buffer (25 mM Hepes pH 7.5, 50 mM NaCl, 10 mM MgCl2 and 0.01% Brij-35) was added to the plate and pre-incubated with inhibitor for 2 hours at ambient temperature. Appropriate controls (enzyme with no inhibitor or with a G12C inhibitor (AMG-510)) were included on the plate. The exchange was initiated by the addition of a 5 μL/well volume containing 1 mM GppNHp and 300 nM SOS1 in assay buffer. The 10 μL/well reaction concentration of the bodipy-loaded KRAS G12C, GppNHp, and SOS1 were 2.5 nM, 500 uM, and 150 nM, respectively. The reaction plates were incubated at ambient temperature for 2 hours, a time estimated for complete GDP-GTP exchange in the absence of inhibitor. For the KRAS G12D and G12V mutants, similar guanine nucleotide exchange assays were used with 2.5 nM as final concentration for the bodipy loaded KRAS proteins and with 4 hours and 3 hours incubation after adding GppNHp-SOS1 mixture for G12D and G12V respectively. A cyclic peptide described to selectively bind G12D mutant (Sakamoto et al., BBRC 484.3 (2017), 605-611) or internal compounds with confirmed binding were used as positive controls in the assay plates. Fluorescence intensities were measured on a PheraStar plate reader instrument (BMG Labtech) with excitation at 485 nm and emission at 520 nm.
(§2) Either GraphPad prism or XLfit was used to analyze the data. The IC50 values were derived by fitting the data to a four parameter logistic equation producing a sigmoidal dose-response curve with a variable Hill coefficient. Prism equation: Y=Bottom+(Top−Bottom)/(1+10^((Log IC50−X)*Hill slope)); XLfit equation: Y=(A+((B−A)/(1+((X/C)^D)))) where X is the logarithm of inhibitor concentration and Y is the response.

[1] = test system: KRAS G12D (A427, HPAF-II cells); assay: KRAS_G12D cellular pERK HTRF assay; format: cell-based; conditions: cells incubated with compound 2 hours; read-out: G12D_pERK (KRAS_G12D pERK assay IC50)
Protocol: (§3) MIA PaCa-2 (KRAS G12C; ATCC® CRL-1420), A427 (KRAS G12D; ATCC® HTB53), HPAF-II (KRAS G12D; ATCC® CRL-1997) and NCI-H838 (KRAS WT; ATCC® CRL-5844) cells are purchased from ATCC and maintained in RPMI 1640 media supplemented with 10% FBS (Gibco/Life Technologies). The cells are plated at 5000 cells per well (8 uL) into Greiner 384-well low volume, flat-bottom, tissue culture treated white plates and incubated overnight at 37° C., 5% CO2. The next morning, test compound stock solutions are diluted in media at 3x the final concentration, and 4 uL are added to the cells. The plate is mixed by gentle rotation for 30 seconds (250 rpm) at room temperature. The cells are incubated with the KRAS G12C and G12D compounds for 4 hours or 2 hours respectively at 37° C., 5% CO2.
(§4) 4 uL of 4× lysis buffer with blocking reagent (1:25) (Cisbio) are added to each well and plates are rotated gently (300 rpm) for 30 minutes at room temperature. 4 uL per well of Cisbio anti Phospho-ERK 1/2 d2 is mixed with anti Phospho-ERK 1/2 Cryptate (1:1) are added to each well, mixed by rotation and incubated overnight in the dark at room temperature. Plates are read on the Pherastar plate reader at 665 nm and 620 nm wavelengths. IC50 determination is performed by fitting the curve of inhibitor percent inhibition versus the log of the inhibitor concentration using the GraphPad Prism 7 software.

KRAS G12D = KRAS G12D (Homo sapiens, UniProt P01116, G12D); assay: KRAS G12D GDP-GTP exchange assay (bodipy-GDP/GppNHp, SOS1); format: biochemical; conditions: bodipy loaded KRAS G12D 2.5 nM, 4 hours incubation after GppNHp-SOS1; read-out: G12D_exchange (KRAS_G12D exchange assay IC50)
Protocol: as §1, §2

[2] = test system: KRAS G12C (MIA PaCa-2 cells); assay: KRAS_G12C cellular pERK HTRF assay; format: cell-based, human; design: G12C_pERK (KRAS_G12C pERK assay IC50): scale not given here; conditions: cells incubated with compound 4 hours; for IC50: Homo sapiens, MIA PaCa-2, read-out: G12C_pERK (KRAS_G12C pERK assay IC50)
Protocol: as §3, §4

Chain of KRAS G12C (P01116 1-188 isoform P01116-2 G12C): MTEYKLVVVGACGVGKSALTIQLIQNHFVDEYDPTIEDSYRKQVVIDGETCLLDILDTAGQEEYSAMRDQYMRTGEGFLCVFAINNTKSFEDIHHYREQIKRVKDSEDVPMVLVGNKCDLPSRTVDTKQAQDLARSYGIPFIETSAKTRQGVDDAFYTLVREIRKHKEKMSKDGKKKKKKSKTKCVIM
Chain of KRAS G12D (P01116 1-188 isoform P01116-2 G12D): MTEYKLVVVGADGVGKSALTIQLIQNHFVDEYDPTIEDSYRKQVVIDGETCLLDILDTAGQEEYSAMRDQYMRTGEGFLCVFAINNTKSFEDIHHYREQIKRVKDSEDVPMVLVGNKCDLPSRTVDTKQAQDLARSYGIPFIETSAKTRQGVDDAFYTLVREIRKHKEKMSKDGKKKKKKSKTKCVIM

| SMILES | IC50 (KRAS G12C) [nM] | IC50 [2] [nM] | other results |
| --- | --- | --- | --- |
| C=CC(=O)N1CCC2(C1)Nc1c(cnc3c(F)c(-c4c(C)ccc5[nH]ncc45)c(Cl)cc13)NC2=O (racemic) [Example 9, 1′-Acryloyl-9-chloro-7-fluoro-8-(5-methyl-1H-indazol-4-yl)-1,4-dihydro-3H-spiro[pyrazino[2,3-c]quinoline-2,3′-pyrrolidin]-3-one] | 1000 to 5000 | – | – |
| CC(C)CCN1C(=O)C2(CCCNC2)c2c1c(OC[C@@H]1CCCN1C)nc1c(F)c(-c3cc(O)cc4ccccc34)c(CCCC#N)cc21 (single isomer, unassigned) [Example 35a] | – | – | IC50 [1]: 5000 to 50000 nM; IC50 (KRAS G12D): ≤ 100 nM |
| C=CC(=O)N1CCC2(CC1)Nc1c(cnc3c(F)c(-c4cc(O)ccc4Cl)c(Cl)cc13)NC2=O [Example 2, 1-Acryloyl-9′-chloro-8′-(2-chloro-5-hydroxyphenyl)-7′-fluoro-1′,4′-dihydro-3′H-spiro[piperidine-4,2′-pyrazino[2,3-c]quinolin]-3′-one] | – | 1000 to 5000 | – |
| C=CC(=O)N1CCC2(CC1)Nc1c(cnc3c(F)c(-c4cccc5[nH]nc(C)c45)c(Cl)cc13)NC2=O [Example 3, 1-Acryloyl-9′-chloro-7′-fluoro-8′-(3-methyl-1H-indazol-4-yl)-1′,4′-dihydro-3′H-spiro[piperidine-4,2′-pyrazino[2,3-c]quinolin]-3′-one] | 1000 to 5000 | – | – |
| C=CC(=O)N1CCC2(CC1)Nc1c(cnc3c(F)c(-c4c(F)cccc4OC)c(Cl)cc13)NC2=O [Example 5, 1-Acryloyl-9′-chloro-7′-fluoro-8′-(2-fluoro-6-methoxyphenyl)-1′,4′-dihydro-3′H-spiro[piperidine-4,2′-pyrazino[2,3-c]quinolin]-3′-one] | 1000 to 5000 | – | – |
| C=CC(=O)N1CC2(C1)Nc1c(cnc3c(F)c(-c4c(O)cccc4F)c(Cl)cc13)NC2=O [Example 6, 1-Acryloyl-9′-chloro-7′-fluoro-8′-(2-fluoro-6-hydroxyphenyl)-1′,4′-dihydro-3′H-spiro[azetidine-3,2′-pyrazino[2,3-c]quinolin]-3′-one] | – | 1000 to 5000 | – |
| C=CC(=O)N1CC2(C1)Nc1c(cnc3c(F)c(-c4c(C)ccc5[nH]ncc45)c(Cl)cc13)NC2=O [Example 7, 1-Acryloyl-9′-chloro-7′-fluoro-8′-(5-methyl-1H-indazol-4-yl)-1′,4′-dihydro-3′H-spiro[azetidine-3,2′-pyrazino[2,3-c]quinolin]-3′-one] | – | 1000 to 5000 | – |
| C=CC(=O)N1CCC2(C1)Nc1c(cnc3c(F)c(-c4c(O)cccc4F)c(Cl)cc13)NC2=O (centres unmarked) [Example 8, 1′-Acryloyl-9-chloro-7-fluoro-8-(2-fluoro-6-hydroxyphenyl)-1,4-dihydro-3H-spiro[pyrazino[2,3-c]quinoline-2,3′-pyrrolidin]-3-one] | – | 1000 to 5000 | – |
| C=CC(=O)N1CCC2(CC1)Nc1c(c(OCCN3CCCCC3)nc3c(F)c(-c4c(O)cccc4F)c(Cl)cc13)NC2=O [Example 12, 1-Acryloyl-9′-chloro-7′-fluoro-8′-(2-fluoro-6-hydroxyphenyl)-5′-(2-(piperidin-1-yl)ethoxy)-1′,4′-dihydro-3′H-spiro[piperidine-4,2′-pyrazino[2,3-c]quinolin]-3′-one] | – | 1000 to 5000 | – |
| C=CC(=O)N1CCC2(C1)C(=O)Nc1c(OC[C@@H]3CCCN3C)nc3c(F)c(-c4cc(O)cc5ccccc45)c(Cl)cc3c12 (stereo partly drawn) [Example 14, 1-Acryloyl-8′-chloro-6′-fluoro-7′-(3-hydroxynaphthalen-1-yl)-4′-(((S)-1-methylpyrrolidin-2-yl)methoxy)spiro[pyrrolidine-3,1′-pyrrolo[2,3-c]quinolin]-2′(3′H)-one] | – | – | G12C_pERK (KRAS_G12C pERK assay IC50) [2]: †† |

Now from value to molecule, other results behind:

| IC50 (KRAS G12C) [nM] | IC50 [2] [nM] | SMILES | other results |
| --- | --- | --- | --- |
| 1000 to 5000 | – | C=CC(=O)N1CCCC2(C1)C(=O)Nc1c(OC[C@@H]3CCCN3C)nc3c(F)c(-c4cc(O)cc5ccccc45)c(Cl)cc3c12 (mixture of isomers) [Example 15, 1-Acryloyl-8′-chloro-6′-fluoro-7′-(3-hydroxynaphthalen-1-yl)-4′-(((S)-1-methylpyrrolidin-2-yl)methoxy)spiro[piperidine-3,1′-pyrrolo[2,3-c]quinolin]-2′(3′H)-one] | – |
| ≤ 100 | 1000 to 5000 | C=CC(=O)N1CCC2(CC1)Nc1c(c(OC[C@@H]3CCCN3C)nc3c(F)c(-c4c(O)cccc4F)c(Cl)cc13)NC2=O [Example 10, 1-Acryloyl-9′-chloro-7′-fluoro-8′-(2-fluoro-6-hydroxyphenyl)-5′-(((S)-1-methylpyrrolidin-2-yl)methoxy)-1′,4′-dihydro-3′H-spiro[piperidine-4,2′-pyrazino[2,3-c]quinolin]-3′-one] | – |
| ≤ 100 | – | C=CC(=O)N1CCC2(CC1)Nc1c(c(OC[C@@H]3CCCN3C)nc3c(F)c(-c4cc(O)cc5ccccc45)c(Cl)cc13)NC2=O [Example 11, 1-Acryloyl-9′-chloro-7′-fluoro-8′-(3-hydroxynaphthalen-1-yl)-5′-(((S)-1-methylpyrrolidin-2-yl)methoxy)-1′,4′-dihydro-3′H-spiro[piperidine-4,2′-pyrazino[2,3-c]quinolin]-3′-one] | G12C_pERK (KRAS_G12C pERK assay IC50) [2]: †† |
| ≤ 100 | – | C=CC(=O)N1CCC2(CC1)C(=O)Nc1c(OC[C@@H]3CCCN3C)nc3c(F)c(-c4cc(O)cc5ccccc45)c(Cl)cc3c12 [Example 13, 1-Acryloyl-8′-chloro-6′-fluoro-7′-(3-hydroxynaphthalen-1-yl)-4′-(((S)-1-methylpyrrolidin-2-yl)methoxy)spiro[piperidine-4,1′-pyrrolo[2,3-c]quinolin]-2′(3′H)-one] | G12C_pERK (KRAS_G12C pERK assay IC50) [2]: †† |
| 1000 to 5000 | – | C=CC(=O)N1CCC2(CC1)CC(=O)c1cnc3c(F)c(-c4cc(O)cc5ccccc45)c(Cl)cc3c1O2 [Example 17, 1-Acryloyl-9′-chloro-7′-fluoro-8′-(3-hydroxynaphthalen-1-yl)spiro[piperidine-4,2′-pyrano[3,2-c]quinolin]-4′(3′H)-one] | – |
| – | 1000 to 5000 | C=CC(=O)N1CC2(C1)Nc1c(c(OC[C@@H]3CCCN3C)nc3c(F)c(-c4c(O)cccc4F)c(Cl)cc13)NC2=O [Example 18, 1-Acryloyl-9′-chloro-7′-fluoro-8′-(2-fluoro-6-hydroxyphenyl)-5′-(((S)-1-methylpyrrolidin-2-yl)methoxy)-1′,4′-dihydro-3′H-spiro[azetidine-3,2′-pyrazino[2,3-c]quinolin]-3′-one] | – |
